Data from patent publication US11266662B2, “Ganaxolone for use in prophylaxis and treatment of postpartum depression” (Marinus Pharmaceuticals, Inc., priority 2018, dated 2022).
Where “and” joins values, the source holds several entries; their conditions need not be identical. Equal values may be shown once.

Assay: Phase 2A study (Magnolia) in women with postpartum depression: ganaxolone plasma concentrations / pharmacokinetics
Conditions: for GNX Concentration: individual subjects, listed as GNX; for concentration at 12 h / concentration at 24 h / concentration at 48 h / concentration at 24 hr / concentration at 48 hr / concentration at 12 hr: female, human, plasma, intravenous, Mean average GNX Concentration
Description: Approximately 200 women with PPD 18 to 45 years of age are screened to randomize up to 100 subjects across up to 6 cohorts. Approximately 10-30 subjects are randomized into each cohort. Randomized subjects receive the investigational product (IP), ganaxolone or matching placebo in a 1:1 ratio. In Cohorts 1-5 the IP is administered intravenously over 60 hours. In Cohort 6 the dosing is initiated with a 6-hour intravenous (IV) infusion followed by oral dosing for 28 days plus 3-day taper.
Ganaxolone is infused at a rate of 4 mg/hr (16 ml/h of ganaxolone 0.25 mg/ml solution) for 48 hours and then, to minimize any risks for withdrawal or rebound of anxiety and depression symptoms, at a rate of 2 mg/hr for the next 12 hours. The infusion is stopped at 60 hours. Total of 9 subjects are dosed for this cohort.
Ganaxolone is infused at a rate of 8 mg/hr (16 ml/h of ganaxolone 0.5 mg/ml solution) for 48 hours and then at a rate of 4 mg/hr for the next 12 hours. This dose is approximately double the expected plasma exposure as compared to Cohort 1 at steady state (Cohort 2 expected plasma concentration ˜100-120 ng/mL). The infusion is stopped at 60 hours.
Twelve mg bolus of ganaxolone is initially given over 2 minutes followed by ganaxolone infusion at a rate of 12 mg/hr (24 ml/h of ganaxolone 0.5 mg/ml solution) for 48 hours. The rate is then reduced to 6 mg/hr for the next 12 hours, which is done to minimize any risks for withdrawal or rebound of anxiety and depression symptoms. The infusion is stopped at 60 hours.
In this cohort dosing is initiated with ganaxolone infusion at a rate of 20 mg/hr (40 ml/h of ganaxolone 0.5 mg/ml solution or matching placebo) for 6 hours followed by ganaxolone 900 mg (four 225 mg capsules per dose) or matching placebo capsules given orally at dinner time for 28 days followed by a 3-day taper (three, two, and one 225 mg capsule(s) per day, respectively).
This initial infusion is targeted to provide a fast onset of antidepressant activity by delivery of rapid plasma exposures to ganaxolone. Then, at dinner time of Day 1 the subjects take their first oral dose of ganaxolone 900 mg (four 225 mg capsules) or matching placebo (4 capsules). […] In previous studies, ganaxolone has been given up to a daily dose of 2000 mg, and at single doses of 1000 mg.
Six samples are collected for pharmacokinetic analysis in Cohorts 1-5 and 12 samples in Cohort 6. […] Seven samples are collected during the inpatient phase of Cohort 6 (including 6 samples on Day 1) followed by collection of 5 samples during the outpatient phase during the study visits for a total of 12 samples in Cohort 6.

## CC(=O)[C@H]1CC[C@H]2[C@@H]3CC[C@H]4C[C@](C)(O)CC[C@]4(C)[C@H]3CC[C@]12C [ganaxolone, 3α-hydroxy-3β-methyl-5α-pregnan-20-one]
Cohort 1, infusion rate 4 mg/hr, estimated target
  Targeted ganaxolone plasma concentration at steady state (Css): 52 ng/mL
Cohort 1: IV 4 mg/hr for 48 h then 2 mg/hr for 12 h, time 12 hr
  GNX Concentration: 61.6 ng/mL
Cohort 1: IV 4 mg/hr for 48 h then 2 mg/hr for 12 h, time 24 hr
  GNX Concentration: 59 ng/mL
Cohort 2, 8 mg/hr
  Expected plasma concentration at steady state: 100 to 120 ng/mL
Cohort 2: IV 8 mg/hr for 48 h then 4 mg/hr for 12 h, time 12 hr
  GNX Concentration: 107 ng/mL (2×) and 70.8 ng/mL and 111 ng/mL and 150 ng/mL and 115 ng/mL and 63.3 ng/mL and 69.3 ng/mL and 116 ng/mL and 49.5 ng/mL and 146 ng/mL and 183 ng/mL and 140 ng/mL and 71.5 ng/mL and 77.6 ng/mL
Cohort 2: IV 8 mg/hr for 48 h then 4 mg/hr for 12 h, time 24 hr
  GNX Concentration: 125 ng/mL and 92 ng/mL and 140 ng/mL and 45.5 ng/mL and 75.7 ng/mL and 106 ng/mL and 96.5 ng/mL and 1590* ng/mL and 142 ng/mL and 80.6 ng/mL and 175 ng/mL and 174 ng/mL and 162 ng/mL and 89.3 ng/mL and 26100* ng/mL
Cohort 2: IV 8 mg/hr for 48 h then 4 mg/hr for 12 h, time 48 hr
  GNX Concentration: 120 ng/mL (2×) and 136 ng/mL and 102 ng/mL and 197 ng/mL and 92 ng/mL and 77.8 ng/mL and 73.9 ng/mL and 118 ng/mL and 73.1 ng/mL and 131 ng/mL and 298 ng/mL and 132 ng/mL and 93.6 ng/mL and 7390* ng/mL
Cohort 2: IV 8 mg/hr for 48 h then 4 mg/hr for 12 h, time 72 hr
  GNX Concentration: 27.1 ng/mL and 26.4 ng/mL and 30.1 ng/mL and 28.2 ng/mL and 11.9 ng/mL and 23.9 ng/mL and 23.1 ng/mL and 26.8 ng/mL and 25.6 ng/mL and 19.4 ng/mL and 46.2 ng/mL and 26.9 ng/mL and 21.5 ng/mL and 18.1 ng/mL and 27.5 ng/mL
Cohort 3, 12 mg bolus over 2 minutes
  Expected peak plasma concentrations during initial 2-minute bolus: up to 300 ng/ml
Cohort 3: 12 mg bolus, IV 12 mg/hr for 48 h then 6 mg/hr for 12 h, time 12 hr
  GNX Concentration: 137 ng/mL and 100 ng/mL and 106 ng/mL and 118 ng/mL and 138 ng/mL and 230 ng/mL and 126 ng/mL and 204 ng/mL and 61.1 ng/mL
Cohort 3: 12 mg bolus, IV 12 mg/hr for 48 h then 6 mg/hr for 12 h, time 24 hr
  GNX Concentration: 164 ng/mL and 125 ng/mL and 148 ng/mL and 163 ng/mL and 165 ng/mL and 254 ng/mL and 144 ng/mL and 250 ng/mL and 56 ng/mL and 16 ng/mL
Cohort 3: 12 mg bolus, IV 12 mg/hr for 48 h then 6 mg/hr for 12 h, time 48 hr
  GNX Concentration: 207 ng/mL and 146 ng/mL and 212 ng/mL and 66.4 ng/mL and 211 ng/mL and 213 ng/mL and 4160* ng/mL and 209 ng/mL and 85 ng/mL
Cohort 3: 12 mg bolus, IV 12 mg/hr for 48 h then 6 mg/hr for 12 h, time 72 hr
  GNX Concentration: 49.3 ng/mL and 26.1 ng/mL and 30 ng/mL and 46.2 ng/mL and 44.6 ng/mL and 42.8 ng/mL and 30.2 ng/mL and 31.7 ng/mL and 17.5 ng/mL and 15.2 ng/mL
86 μg/kg/hr, calculated for dose 86 μg/kg/hr, time 12 hr
  concentration at 12 h: 81.4 ng/mL
86 μg/kg/hr, calculated for dose 86 μg/kg/hr, time 24 hr
  concentration at 24 h: 91.2 ng/mL
86 μg/kg/hr, calculated for dose 86 μg/kg/hr, time 48 hr
  concentration at 48 h: 100 ng/mL
150 μg/kg/hr, calculated for dose 150 μg/kg/hr, time 12 hr
  concentration at 12 h: 142 ng/mL
150 μg/kg/hr, calculated for dose 150 μg/kg/hr, time 24 hr
  concentration at 24 hr: 159 ng/mL
150 μg/kg/hr, calculated for dose 150 μg/kg/hr, time 48 hr
  concentration at 48 hr: 175 ng/mL
160 μg/kg/hr, calculated for dose 160 μg/kg/hr, time 12 hr
  concentration at 12 hr: 151 ng/mL
160 μg/kg/hr, calculated for dose 160 μg/kg/hr, time 24 hr
  concentration at 24 hr: 170 ng/mL
160 μg/kg/hr, calculated for dose 160 μg/kg/hr, time 48 hr
  concentration at 48 hr: 187 ng/mL
170 μg/kg/hr, calculated for dose 170 μg/kg/hr, time 12 hr
  concentration at 12 hr: 161 ng/mL
170 μg/kg/hr, calculated for dose 170 μg/kg/hr, time 24 hr
  concentration at 24 hr: 180 ng/mL
170 μg/kg/hr, calculated for dose 170 μg/kg/hr, time 48 hr
  concentration at 48 hr: 199 ng/mL
180 μg/kg/hr, calculated for dose 180 μg/kg/hr, time 12 hr
  concentration at 12 h: 170 ng/mL
180 μg/kg/hr, calculated for dose 180 μg/kg/hr, time 24 hr
  concentration at 24 h: 191 ng/mL
180 μg/kg/hr, calculated for dose 180 μg/kg/hr, time 48 hr
  concentration at 48 h: 210 ng/mL
190 μg/kg/hr, calculated for dose 190 μg/kg/hr, time 12 hr
  concentration at 12 h: 180 ng/mL
190 μg/kg/hr, calculated for dose 190 μg/kg/hr, time 24 hr
  concentration at 24 h: 202 ng/mL
190 μg/kg/hr, calculated for dose 190 μg/kg/hr, time 48 hr
  concentration at 48 h: 222 ng/mL
200 μg/kg/hr, calculated for dose 200 μg/kg/hr, time 12 hr
  concentration at 12 h: 189 ng/mL
200 μg/kg/hr, calculated for dose 200 μg/kg/hr, time 24 hr
  concentration at 24 h: 212 ng/mL
200 μg/kg/hr, calculated for dose 200 μg/kg/hr, time 48 hr
  concentration at 48 h: 234 ng/mL
210 μg/kg/hr, calculated for dose 210 μg/kg/hr, time 12 hr
  concentration at 12 h: 199 ng/mL
210 μg/kg/hr, calculated for dose 210 μg/kg/hr, time 24 hr
  concentration at 24 h: 223 ng/mL
210 μg/kg/hr, calculated for dose 210 μg/kg/hr, time 48 hr
  concentration at 48 h: 246 ng/mL
220 μg/kg/hr, calculated for dose 220 μg/kg/hr, time 12 hr
  concentration at 12 h: 208 ng/mL
220 μg/kg/hr, calculated for dose 220 μg/kg/hr, time 24 hr
  concentration at 24 h: 233 ng/mL
220 μg/kg/hr, calculated for dose 220 μg/kg/hr, time 48 hr
  concentration at 48 h: 257 ng/mL
